Laboratory results published in patent US8512961B2, “Methods of detecting and treatment of cancers using Scutellaria barbata extract” (Bionovo, Inc., priority 2007, dated 2013).

Legend:
DNA = DNA damage, comet formation; type: cell-based; conditions: for effect on comet formation induced by BZL101: cells pretreated prior to the addition of BZL101
Source text: There is a different fold increase of ROS levels in different cells treated with BZL101 compared to control untreated cells. It is of particular interest that the increase in ROS correlates well with the degree of DNA damage induced in these cells.
To further implicate ROS in the induction of DNA damage, comet formation in cells pretreated with the antioxidants NAC and pyruvate prior to the addition of BZL101 were examined.

ROS = ROS generation, staining with ROS-sensitive probe CM-H2DCFDA; type: cell-based; conditions: incubation of cells prior to addition of BZL101; SKBr3 cells
SKBr3 cells = assay: 8-oxoguanine, flow cytometry with avidin fluorescein; type: cell-based, human; conditions: cells pretreated prior to addition of BZL101
Method: To verify that BZL101 leads to oxidative DNA damage, it was determined whether the DNA of BZL101-treated cells contains 8-oxoguanine, the most ubiquitous marker of DNA oxidation. […] (See FIG. 9). […] (See FIG. 10). Analysis of the 8-oxoguanidine and apurininc/apyrimidinic (AP) bases in DNA. The Calbiochem kit was used for staining of the fixed and permeabilized cells with avidin fluorescein. Quantification of apurinic/[…] nucleotides in genomic DNA was performed using the DNA damage quantification kit from BioVision Research Products.

| SMILES | effect on comet formation induced by BZL101 (DNA) | effect on BZL101-induced ROS generation (ROS) | DNA damage repair in cancer cells (DNA; in the presence of the antioxidant, BZL101-treated cancer cells) | effect on BZL101-induced increase in avidin binding (8-oxoguanine) (SKBr3 cells) |
| --- | --- | --- | --- | --- |
| CC1(C)N([O])C(c2ccccc2)=[N+]([O-])C1(C)C [PTIO] | no effect | – | – | – |
| CC(=O)N[C@@H](CS)C(=O)O [NAC, N-acetyl-cysteine] | significantly reduced the number of cells forming comets | prevented most of the increase in ROS generation | greatly accelerated | completely abolished |
